Assay results from ChEMBL document CHEMBL1909294, “Translating clinical findings into knowledge in drug safety evaluation--drug induced liver injury prediction system (DILIps)” (PLoS Comput Biol, 2011).

Assays:
[1] = test system: Hepatotoxicity;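 as to HepSE bilirubinemia: bilirubinemia hepatic side effect score drawn from the DILIps training data, a prediction system for drug-induced liver injury; call rule not given here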;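 as to HepSE cholecystitis: Cholecystitis-related hepatic side effect score drawn from the DILIps (drug-induced liver injury prediction) training data set; call rule not given here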;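 as to HepSE cholelithiasis: hepatic side effect score for cholelithiasis, drawn from the DILIps training data for predicting drug-induced liver injury; call rule not given here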;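 as to HepSE cirrhosis: cirrhosis hepatic side effect score taken from the DILIps (drug-induced liver injury prediction) training set; call rule not given here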;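 as to HepSE elevated liver function tests: hepatic side effect score for raised liver function tests, as recorded in the DILIps training set used for predicting drug-induced liver injury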; as to HepSE hepatic failure: call rule not given here;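 as to HepSE hepatomegaly: hepatic side effect score for hepatomegaly, taken from the training set of the DILIps drug-induced liver injury prediction system; call rule not given here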
[2] = test system: Hepatotoxicity; remark: listed apart in the source;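 as to HepSE bilirubinemia: bilirubinemia hepatic side effect score drawn from the DILIps training data, a prediction system for drug-induced liver injury; call rule not given here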;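 as to HepSE cholecystitis: Cholecystitis-related hepatic side effect score drawn from the DILIps (drug-induced liver injury prediction) training data set; call rule not given here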;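 as to HepSE cholelithiasis: hepatic side effect score for cholelithiasis, drawn from the DILIps training data for predicting drug-induced liver injury; call rule not given here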;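 as to HepSE cirrhosis: cirrhosis hepatic side effect score taken from the DILIps (drug-induced liver injury prediction) training set; call rule not given here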;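 as to HepSE elevated liver function tests: hepatic side effect score for raised liver function tests, as recorded in the DILIps training set used for predicting drug-induced liver injury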; as to HepSE hepatic failure: call rule not given here
[3] = test system: Hepatotoxicity; remark: listed apart in the source;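 as to HepSE bilirubinemia: bilirubinemia hepatic side effect score drawn from the DILIps training data, a prediction system for drug-induced liver injury; call rule not given here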;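 as to HepSE cholecystitis: Cholecystitis-related hepatic side effect score drawn from the DILIps (drug-induced liver injury prediction) training data set; call rule not given here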;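 as to HepSE cholelithiasis: hepatic side effect score for cholelithiasis, drawn from the DILIps training data for predicting drug-induced liver injury; call rule not given here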;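 as to HepSE cirrhosis: cirrhosis hepatic side effect score taken from the DILIps (drug-induced liver injury prediction) training set; call rule not given here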;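 as to HepSE elevated liver function tests: hepatic side effect score for raised liver function tests, as recorded in the DILIps training set used for predicting drug-induced liver injury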; as to HepSE hepatic failure: call rule not given here
[4] = test system: Hepatotoxicity; remark: listed apart in the source;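 as to HepSE bilirubinemia: bilirubinemia hepatic side effect score drawn from the DILIps training data, a prediction system for drug-induced liver injury; call rule not given here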;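 as to HepSE cholecystitis: Cholecystitis-related hepatic side effect score drawn from the DILIps (drug-induced liver injury prediction) training data set; call rule not given here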;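 as to HepSE cholelithiasis: hepatic side effect score for cholelithiasis, drawn from the DILIps training data for predicting drug-induced liver injury; call rule not given here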;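 as to HepSE cirrhosis: cirrhosis hepatic side effect score taken from the DILIps (drug-induced liver injury prediction) training set; call rule not given here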;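 as to HepSE elevated liver function tests: hepatic side effect score for raised liver function tests, as recorded in the DILIps training set used for predicting drug-induced liver injury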; as to HepSE hepatic failure: call rule not given here
[5] = test system: Hepatotoxicity; remark: listed apart in the source; as to HepSE hepatic failure: call rule not given here
[6] = test system: Hepatotoxicity; remark: listed apart in the source; as to HepSE hepatic failure: call rule not given here
[7] = test system: Hepatotoxicity; remark: listed apart in the source
[8] = test system: Hepatotoxicity; remark: listed apart in the source
[9] = test system: Hepatotoxicity; remark: listed apart in the source
[10] = test system: Hepatotoxicity; remark: listed apart in the source
[11] = test system: Hepatotoxicity; remark: listed apart in the source
[12] = test system: Hepatotoxicity; remark: listed apart in the source
[13] = test system: Hepatotoxicity; remark: listed apart in the source
[14] = test system: Hepatotoxicity; remark: listed apart in the source

| SMILES | HepSE_bilirubinemia [1] | HepSE_cholecystitis [2] | HepSE_cholelithiasis [3] | HepSE_cirrhosis [4] | HepSE_elevated liver function tests [5] | HepSE_hepatic failure [6] | HepSE_hepatic necrosis [7] | HepSE_hepatitis [8] | HepSE_hepatomegaly [9] | HepSE_jaundice [10] | HepSE_liver disease [11] | HepSE_liver fatty [12] | HepSE_liver function tests abnormal [13] | HepSE_Combined Scores [14] | also measured |
| --- | --- | --- | --- | --- | --- | --- | --- | --- | --- | --- | --- | --- | --- | --- | --- |
| C=C1C[C@@H]2[C@H](CC[C@]3(C)C(=O)CC[C@@H]23)[C@@]2(C)C=CC(=O)C=C12 [EXEMESTANE] | 0 | 0 | 0 | 0 | 0 | 0 | 0 | 1 | 0 | 0 | 0 | 0 | 0 | 1 | – |
| O=C1[C@H](CC[C@H](O)c2ccc(F)cc2)[C@@H](c2ccc(O)cc2)N1c1ccc(F)cc1 [EZETIMIBE] | 0 | 1 | 1 | 0 | 0 | 0 | 0 | 1 | 0 | 0 | 0 | 0 | 0 | 3 | – |
| CC(=O)OCC(CCn1cnc2cnc(N)nc21)COC(C)=O [FAMCICLOVIR] | 1 | 0 | 0 | 0 | 0 | 0 | 0 | 0 | 0 | 1 | 0 | 0 | 1 | 3 | – |
| NC(N)=Nc1nc(CSCCC(N)=NS(N)(=O)=O)cs1 [FAMOTIDINE] | – | – | – | – | – | – | – | – | – | – | – | – | – | – | HepSE_bilirubinemia ([1]; Liver): 0; HepSE_cholecystitis ([2]; Liver): 0; HepSE_cholelithiasis ([3]; Liver): 0; HepSE_cirrhosis ([4]; Liver): 0; HepSE_elevated liver function tests ([5]; Liver): 0; HepSE_hepatic failure ([6]; Liver): 0; HepSE_hepatic necrosis ([7]; Liver): 0; HepSE_hepatitis ([8]; Liver): 0; HepSE_hepatomegaly ([9]; Liver): 0; HepSE_jaundice ([10]; Liver): 1; HepSE_liver disease ([11]; Liver): 0; HepSE_liver fatty ([12]; Liver): 0; HepSE_liver function tests abnormal ([13]; Liver): 0; HepSE_Combined Scores ([14]; Liver): 1 |
| CCOC(=O)C1=C(C)NC(C)=C(C(=O)OC)C1c1cccc(Cl)c1Cl (configuration not stated) [FELODIPINE] | 0 | 0 | 0 | 0 | 0 | 0 | 0 | 1 | 0 | 0 | 0 | 0 | 0 | 1 | – |
| CC(C)OC(=O)C(C)(C)Oc1ccc(C(=O)c2ccc(Cl)cc2)cc1 [FENOFIBRATE] | 0 | 1 | 1 | 1 | 0 | 0 | 0 | 1 | 0 | 1 | 0 | 1 | 1 | 7 | – |
| Oc1ccc(C2CNCCc3c2cc(O)c(O)c3Cl)cc1 (configuration not stated) [FENOLDOPAM] | 0 | 0 | 0 | 0 | 0 | 0 | 0 | 0 | 0 | 0 | 0 | 0 | 0 | 0 | – |
| CC(C(=O)O)c1cccc(Oc2ccccc2)c1 (configuration not stated) [FENOPROFEN] | 0 | 0 | 0 | 0 | 0 | 0 | 0 | 1 | 0 | 1 | 0 | 0 | 0 | 2 | – |
| CC(C)(C)NC(=O)[C@H]1CC[C@H]2[C@@H]3CC[C@H]4NC(=O)C=C[C@]4(C)[C@H]3CC[C@]12C [FINASTERIDE] | 0 | 0 | 0 | 0 | 0 | 0 | 0 | 0 | 0 | 0 | 0 | 0 | 0 | 0 | – |
| Cc1c(-c2ccccc2)oc2c(C(=O)OCCN3CCCCC3)cccc2c1=O [FLAVOXATE] | 0 | 0 | 0 | 0 | 0 | 0 | 0 | 0 | 0 | 0 | 0 | 0 | 0 | 0 | – |
| O=C(NCC1CCCCN1)c1cc(OCC(F)(F)F)ccc1OCC(F)(F)F (configuration not stated) [FLECAINIDE] | 0 | 0 | 0 | 0 | 0 | 1 | 0 | 0 | 0 | 1 | 0 | 0 | 0 | 2 | – |
| OC(Cn1cncn1)(Cn1cncn1)c1ccc(F)cc1F [FLUCONAZOLE] | – | – | – | – | – | – | – | – | – | – | – | – | – | – | HepSE_bilirubinemia ([1]; Liver): 0; HepSE_cholecystitis ([2]; Liver): 0; HepSE_cholelithiasis ([3]; Liver): 0; HepSE_cirrhosis ([4]; Liver): 0; HepSE_elevated liver function tests ([5]; Liver): 0; HepSE_hepatic failure ([6]; Liver): 1; HepSE_hepatic necrosis ([7]; Liver): 1; HepSE_hepatitis ([8]; Liver): 1; HepSE_hepatomegaly ([9]; Liver): 0; HepSE_jaundice ([10]; Liver): 1; HepSE_liver disease ([11]; Liver): 0; HepSE_liver fatty ([12]; Liver): 0; HepSE_liver function tests abnormal ([13]; Liver): 0; HepSE_Combined Scores ([14]; Liver): 4 |
| Nc1nc(=O)[nH]cc1F [FLUCYTOSINE] | 0 | 0 | 0 | 0 | 0 | 0 | 0 | 0 | 0 | 1 | 0 | 0 | 0 | 1 | – |
